Reference: article PMC4469915 (Molecules and Cells, 2015)

Columns and labels:
apoA-I = apoA-I (Homo sapiens, UniProt P02647); experiment: DMPC multilamellar liposome clearance, absorbance at […] nm; type: binding; details: lipid-free protein; liposomes; protein:DMPC 2:1 mol/mol as printed; 24.5°C
apoA4 = molecular target: T1, apoA4 (Homo sapiens, UniProt P06727); experiment: as above; type: binding; details: lipid-free protein; liposomes; protein:DMPC 2:1 mol/mol as printed; 24.5°C
T1 sequence (P06727 21-396): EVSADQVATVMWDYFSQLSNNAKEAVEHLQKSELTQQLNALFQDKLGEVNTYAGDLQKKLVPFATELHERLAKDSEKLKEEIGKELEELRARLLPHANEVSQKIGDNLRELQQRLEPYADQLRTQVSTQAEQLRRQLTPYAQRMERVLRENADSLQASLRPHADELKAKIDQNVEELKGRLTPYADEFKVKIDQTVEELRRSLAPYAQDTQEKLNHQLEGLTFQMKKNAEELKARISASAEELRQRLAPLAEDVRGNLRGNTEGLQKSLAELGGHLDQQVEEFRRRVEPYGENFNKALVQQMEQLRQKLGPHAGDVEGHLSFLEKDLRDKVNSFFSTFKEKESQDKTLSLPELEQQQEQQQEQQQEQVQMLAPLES

Chain of apoA-I (P02647 25-267): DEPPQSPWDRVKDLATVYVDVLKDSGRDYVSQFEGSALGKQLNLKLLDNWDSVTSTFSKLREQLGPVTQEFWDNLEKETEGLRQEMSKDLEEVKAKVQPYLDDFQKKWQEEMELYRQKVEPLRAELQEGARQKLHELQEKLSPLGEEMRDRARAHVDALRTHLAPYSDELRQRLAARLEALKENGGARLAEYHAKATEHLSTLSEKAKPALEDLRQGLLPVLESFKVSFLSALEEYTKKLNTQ

CCCCCCCCCCCCCC(=O)OC[C@H](COP(=O)([O-])OCC[N+](C)(C)C)OC(=O)CCCCCCCCCCCCC [DMPC]
T1/2 (apoA-I): 11 ± 1 min | T1/2 (apoA4): 62 ± 10 min
